Assay [1] has as its system Rattus norvegicus. Nature of the assay: Antidiabetic activity against streptozotocin-induced diabetic Wistar rat assessed as increase in incorporation of [14C]leucine in to hepatic […] fraction at 10 mg/day, ip measured per mg protein after 3 days (RVb=377+/-10 cpm). Type of assay: functional.
Assay [2] relates to Rattus norvegicus. Nature of the assay: Antidiabetic activity against streptozotocin-induced diabetic Wistar rat assessed as […] in incorporation of [14C]leucine into per mg serum protein at 10 mg/day, ip measured after 3 days (RVb=640+/-50 cpm). It counts as functional.
Assay [3] concerns Rattus norvegicus. Nature of the assay: Antidiabetic activity against streptozotocin-induced diabetic Wistar rat assessed as increase in incorporation of [14C]leucine in to hepatic nuclear fraction at 10 mg/day, ip measured per mg protein after 3 days (RVb=272+/-8 cpm). Type of assay: functional.
The subject of assay [4] is Rattus norvegicus. Nature of the assay: Antidiabetic activity against streptozotocin-induced diabetic Wistar rat assessed as […] in incorporation of [14C]leucine into per mg of serum protein at 10 mg/day, ip measured after 6 days (RVb=612+/-40 cpm). It counts as functional.
Assay [5] relates to Rattus norvegicus. Nature of the assay: Antidiabetic activity against streptozotocin-induced diabetic Wistar rat assessed as increase in incorporation of [14C]leucine into hepatic homogenate at 10 mg/day, ip measured per mg protein after 6 days (RVb=372+/-3 cpm). It counts as functional.
For assay [6], the system named is Rattus norvegicus. Nature of the assay: Antidiabetic activity against streptozotocin-induced diabetic Wistar rat assessed as decrease in serum glucose level at 10 mg/day, ip for 3 days measured after 3 days (RVb=396+/-18.7 mg/dl). Type of assay: functional.
Assay [7] has as its system Rattus norvegicus. Nature of the assay: Antidiabetic activity against streptozotocin-induced diabetic Wistar rat assessed as increase in serum protein level at 10 mg/day, ip for 6 days by biuret method. It counts as functional.
In assay [8] the test system is Rattus norvegicus. Nature of the assay: Antidiabetic activity against streptozotocin-induced diabetic Wistar rat assessed as increase in incorporation of [14C]leucine into hepatic […] fraction at 10 mg/day, ip measured per mg protein after 6 days (RVb=357+/-14 cpm). It counts as functional.
Assay [9] has as its system Rattus norvegicus. Nature of the assay: Antidiabetic activity against streptozotocin-induced diabetic Wistar rat assessed as decrease in serum glucose level at 10 mg/day, ip for 3 days measured after 6 days (RVb=401+/-10.7 mg/dl). Type of assay: functional.
Assay [10] concerns Rattus norvegicus. Nature of the assay: Antidiabetic activity against streptozotocin-induced diabetic Wistar rat assessed as increase in incorporation of [14C]leucine into hepatic homogenate at 10 mg/day, ip measured per mg protein after 3 days (RVb=401+/-16 cpm). Type of assay: functional.
The subject of assay [11] is Rattus norvegicus. Nature of the assay: Antidiabetic activity against streptozotocin-induced diabetic Wistar rat assessed as increase in incorporation of [14C]leucine in to hepatic nuclear fraction at 10 mg/day, ip measured per mg protein after 6 days (RVb=273+/-8 cpm). It counts as functional.
The test system of assay [12] is Rattus norvegicus. Nature of the assay: Antidiabetic activity against streptozotocin-induced diabetic Wistar rat assessed as increase in serum protein level at 10 mg/day, ip for 3 days measured after 6 days by biuret method (RVb=4.86+/-0.30 g/dl). It counts as functional.
For assay [13], the system named is Rattus norvegicus. Nature of the assay: Antidiabetic activity against streptozotocin-induced diabetic Wistar rat assessed as increase in incorporation of [14C]leucine into hepatic soluble fraction at 10 mg/day, ip measured per mg protein after 6 days (RVb=227+/-8 cpm). It counts as functional.
Assay [14] concerns Rattus norvegicus. Nature of the assay: Antidiabetic activity against streptozotocin-induced diabetic Wistar rat assessed as increase in serum albumin level at 10 mg/day, ip for 3 days measured after 3 days by BCG method (RVb=3.24+/-0.11 g/dl). Type of assay: functional.
The test system of assay [15] is Rattus norvegicus. Nature of the assay: Antidiabetic activity against streptozotocin-induced diabetic Wistar rat assessed as increase in incorporation of [14C]leucine into hepatic microsomal fraction at 10 mg/day, ip measured per mg protein after 6 days (RVb=499+/-57 cpm). It counts as functional, Liver.
The subject of assay [16] is Rattus norvegicus. Nature of the assay: Antidiabetic activity against streptozotocin-induced diabetic Wistar rat assessed as increase in incorporation of [14C]leucine into hepatic microsomal fraction at 10 mg/day, ip measured per mg protein after 3 days (RVb=555+/-33 cpm). Type of assay: functional, Liver.
Assay [17] concerns Rattus norvegicus. Nature of the assay: Antidiabetic activity against streptozotocin-induced diabetic Wistar rat assessed as increase in incorporation of [14C]leucine into hepatic soluble fraction at 10 mg/day, ip measured per mg protein after 3 days (RVb=265+/-8 cpm). It counts as functional.
In assay [18] the test system is Rattus norvegicus. Nature of the assay: Antidiabetic activity against streptozotocin-induced diabetic Wistar rat assessed as increase in serum protein level at 10 mg/day, ip for 3 days measured after 3 days by biuret method (RVb=5.06+/-0.18 g/dl). Type of assay: functional.
The subject of assay [19] is Rattus norvegicus. Nature of the assay: Antidiabetic activity against streptozotocin-induced diabetic Wistar rat assessed as increase in serum albumin level at 10 mg/day, ip for 3 days measured after 6 days by BCG method (RVb=3.07+/-0.08 g/dl). Type of assay: functional.

Each structure is given as a SMILES string.

With `CC(C)=CCC[C@](C)(O[C@@H]1O[C@H](CO[C@@H]2OC[C@H](O)[C@H](O)[C@H]2O)[C@@H](O)[C@H](O)[C@H]1O)[C@H]1CC[C@]2(C)[C@@H]1[C@H](O)C[C@@H]1[C@@]3(C)CC[C@H](O[C@@H]4O[C@H](CO)[C@@H](O)[C@H](O)[C@H]4O[C@@H]4O[C@H](CO)[C@@H](O)[C@H](O)[C@H]4O)C(C)(C)[C@@H]3CC[C@]12C` [GINSENOSIDE RB2], the Activity turned out to be 426 cpm in the assay on Rattus norvegicus [1]; 921 cpm in the assay with Rattus norvegicus [2]; 294 cpm in the assay on Rattus norvegicus [3]; 699 cpm in the assay on Rattus norvegicus [4]; 424 cpm in the assay on Rattus norvegicus [5]; 337.2 mg/dL in the assay with Rattus norvegicus [6]. The Activity in the assay on Rattus norvegicus [7] came to 17%; with Rattus norvegicus [8] it was 395 cpm; in the assay on Rattus norvegicus [9] it was 321 mg/dL; in the assay on Rattus norvegicus [10] it was 481 cpm; in the assay on Rattus norvegicus [11] it was 314 cpm; in the assay on Rattus norvegicus [12], 5.68 g/dL. Moreover, the Activity amounted to 242 cpm with Rattus norvegicus [13]; 3.24 g/dL in the assay on Rattus norvegicus [14]; 737 cpm with Rattus norvegicus [15]; 689 cpm with Rattus norvegicus [16]; 287 cpm in the assay on Rattus norvegicus [17]; 5.11 g/dL in the assay on Rattus norvegicus [18]. Moreover, the Activity in the assay with Rattus norvegicus [19] was found to be 3.39 g/dL.

These data come from ChEMBL document CHEMBL1158927, “Facilitation of protein biosynthesis by ginsenoside-Rb2 administration in diabetic rats” (1990).
